Measured values as given in patent US11369609B2, “Small molecule Wnt inhibitor as treatment for dyslipidemia” (Yale University, priority 2019, dated 2022).

What was measured:
[1] = tested on: diabetic GR^ECKO mice and control littermates; test: Etomoxir and C75 in diabetic control littermates and diabetic GR^ECKO mice; format: in vivo; settings: for body weight: diabetic control littermates and GR^ECKO mice, ip three times per week for 3 weeks
Protocol: (§1) All experiments were performed in accordance with the National Institute of Health (NIH) Guidelines for the Care of Laboratory Animals. Mice lacking the endothelial glucocorticoid receptor (GR) (known as GR^ECKO) and those lacking this receptor on the Apo E null background (DKO) were generated as previously described (6). The induction of diabetes in CD-1 mice and C57B/L6 mice was performed according to previously established experimental protocols (38-42). Briefly, diabetes was induced in 10-week-old GR^ECKO mice with five consecutive intraperitoneal (IP) doses of streptozotocin (STZ) 50 mg/kg in 10 mmol/L citrate buffer (pH 4.5). Wnt inhibitor (LGK974) was provided to GR^ECKO and control littermate at 5 mg/kg at a frequency of six doses per week for 8 weeks (43). Etomoxir (20 mg/kg) and c75 (15 mg/kg) were dosed (ip) three times per week for 3 weeks in the GR^ECKO and control littermate. A single IP dose of 200 mg/kg STZ was used to induce diabetes in CD-1 mice. Fenofibrate (100 mg/kg), simvastatin (40 mg/kg), were dosed orally for 4 weeks in diabetic CD-1 mice. All mice were sacrificed after 4 weeks of treatment and tissues and blood were harvested. Urine albumin levels were assayed using a Mouse Albumin ELISA Kit (Exocell, Philadelphia, Pa.).
(§2) A point-counting method was utilized to evaluate the relative area of the mesangial matrix. PAS-stained glomeruli from each mouse were analyzed using a digital microscope screen grid containing 540 (27×20) points. Masson's trichrome-stained images were evaluated by ImageJ software, and the fibrotic areas were estimated.
(§3) Deparaffinized sections were incubated with picrosirius red solution for 1 hour at room temperature. The slides were washed twice with acetic acid solution for 30 seconds per wash. The slides were then dehydrated in absolute alcohol three times, cleared in xylene, and mounted with a synthetic resin. Sirius red staining was analyzed using ImageJ software, and fibrotic areas were quantified.
(§4) Paraffin-embedded kidney sections (5 μm thick) were deparaffinized and rehydrated (2 min in xylene, four times; 1 min in 100% ethanol, twice; 1 min in 95% ethanol; 45 s in 70% ethanol; and 1 min in distilled water), and the antigen was retrieved in a 10 mM citrate buffer pH 6 at 98° C. for 60 min. To block the endogenous peroxidase, all sections were incubated in 0.3% hydrogen peroxide for 10 min. The immunohistochemistry was performed using a Vectastain ABC Kit (Vector Laboratories, Burlingame, Calif.). Mouse anti-[…] antibody (1:100) and CPT1a (Abnova; H00001374-DO1P; 1:100) antibody was used. In the negative controls, the primary antibody was omitted and replaced with the blocking solution.
Etomoxir and C75 were also tested in the diabetic control littermates and diabetic GR^ECKO mice. […] (FIG. 17D-E).

diabetic CD-1 mice = test: FA metabolism modulators and simvastatin in diabetic CD-1 mice (renal fibrosis); format: in vivo; settings: for fibrogenic phenotype / level of fibrosis in kidneys / fibronectin mRNA level in diabetic kidneys / level of GR protein in CD31 positive cells / αSMA mRNA level in diabetic kidneys: diabetic CD-1 mice treated for 4 weeks; for CPT1a level / β-catenin level: diabetic CD-1 mice, kidney immunohistochemistry
Protocol: as §1, §2, §3, §4
Frozen kidney sections (5 μm) were used for immunofluorescence; double positive labeling with CD31/αSMA, CD31/TGFβR1 and E-cadherin/αSMA was measured. Briefly, frozen sections were dried and placed in acetone for 10 min at −30° C. Once the sections were dried, they were washed twice in phosphate-buffered saline (PBS) for 5 min and then blocked in 2% bovine serum albumin/PBS for 30 min at room temperature. Thereafter, the sections were incubated in primary antibody (1:100) for 1 hour and washed in PBS (5 min) three times. Next, the sections were incubated with the secondary antibodies for 30 min, washed with PBS three times (5 min each), and mounted with mounting medium with DAPI (Vector Laboratories, Burlingame, Calif.). The immune-labeled sections were analyzed by fluorescence microscopy. For each mouse, original magnification of ×400 pictures were obtained from six different areas, and quantification was performed.
(§5) Total RNA was isolated using standard Trizol protocol. RNA was reverse transcribed using the iScript cDNA Synthesis kit (Bio-Rad) and qPCR was performed on a Bio-Rad C1000 Touch thermal cycler using the resultant cDNA, as well as qPCR Master mix and gene specific primers.
It is increasingly recognized that defects in central metabolism contribute to kidney fibrosis (69, 76). […]

kidney endothelial cells = test: Fatty acid oxidation (14CO2 release from [14C]palmitate) in isolated kidney endothelial cells; format: in vivo, mice; settings: for FAO, as measured by 14CO2 release: diabetic CD-1 mice treated for 4 weeks
Protocol: Endothelial cells from the kidneys of non-diabetic and diabetic mice were isolated using a standardized kit (Miltenyl Biotech, USA) by following the manufacturer's instructions. Briefly, kidneys were isolated and minced into small pieces. Using a series of enzymatic reactions by treating the tissue with trypsin and Collagenase type I solution, a single cell suspension was created. The pellet was dissolved with CD31 magnetic beads and the CD31-labelled cells were separated on a magnetic separator. The cells were further purified on a column. Cell number was counted by hemocytometer and cells were plated on 0.1% gelatin coated Petri dishes.
Cultured isolated kidney endothelial cells were incubated with medium containing 0.75 mmol/L palmitate (conjugated to 2% free fatty acid-free BSA/[^14C] palmitate at 2 μCi/mL) for 2 h. One mL of the culture medium was transferred to a sealable tube, the cap of which housed a Whatman filter paper disc. ^14CO2 trapped in the media was then released by acidification of media using 60% perchloric acid. Radioactivity that had become adsorbed onto the filter discs was then quantified by liquid scintillation counting.
It is increasingly recognized that defects in central metabolism contribute to kidney fibrosis (69, 76). Defective FA metabolism in EC leads to EndMT events (77). To investigate whether FA metabolism was deranged in the model, radiolabeled [^14C]palmitate uptake experiments were performed in isolated EC from mouse kidneys. FA uptake was higher in isolated EC from the diabetic kidneys of the more fibrotic strain (diabetic CD-1) when compared to kidney EC from the less-fibrotic strain (diabetic C57BL/6). […] FA oxidation (FAO) was also assessed by measuring the ^14CO2 release from radiolabeled [^14C]palmitate in cultured EC isolated from kidneys. […] In the next set of experiments, diabetic CD-1 mice were treated with the FA synthase inhibitor C75, the FAO inhibitor etomoxir, the PPARα agonist fenofibrate, and the cholesterol-lowering drug simvastatin for 4 weeks. […] (FIG. 23A). Fenofibrate and C75 restored the level of GR protein in CD31 positive cells, whereas etomoxir and simvastatin suppressed it (FIG. 23B).

[2] = tested on: canonical Wnt signaling pathway; test: qPCR of canonical Wnt-dependent genes in Wnt3a-treated MLECs; format: cell-based, mouse
Protocol: as §5, with “ChIP DNA or total RNA was used for qPCR. Total” for “Total”, “cDNA,” for “cDNA, as well as”, “master” for “Master”, “primers. The following primers were used: […]” for “primers.”
MLECS were cultured and starved for 4 hours in 0.5% FBS. Cells were treated for 4 hours with Wnt3a (200 ng/ml).
To further examine the specificity of GR in this interaction, a similar experiment in GR siRNA-treated cells was performed.

[3] = Wnt3a-conditioned media 6 hours, then DEX 100 nM 1 hour

Molecule	body weight [1]	CPT1a level in kidneys ([1]; diabetic control mice)	level of β-catenin in kidneys ([1]; diabetic control mice)	renal fibrogenic phenotype ([1]; diabetic control mice)	fibrogenic phenotype / level of fibrosis in kidneys (diabetic CD-1 mice)	fibronectin mRNA level in diabetic kidneys (diabetic CD-1 mice)	level of GR protein in CD31 positive cells (diabetic CD-1 mice)	αSMA mRNA level in diabetic kidneys (diabetic CD-1 mice)	CPT1a level (diabetic CD-1 mice)	β-catenin level (diabetic CD-1 mice)	FAO, as measured by 14CO2 release (kidney endothelial cells)	FAO in kidney EC (kidney endothelial cells; diabetic GR^ECKO mice)	FAO in kidney EC (kidney endothelial cells; diabetic control littermates)	also measured
C=C1C(=O)OC(CCCCCCCC)C1C(=O)O (stereo not shown) [C75]	no significant differences	restored CPT1a	completely diminished the level of β-catenin	clearly abolished the renal fibrogenic phenotype	ameliorated the fibrogenic phenotype	downregulated	restored	downregulated	induced the level of CPT1a	suppressed the level of β-catenin	increased the level of FAO	unable to rescue the level of FAO	restored FAO	–
C[C@@H]1C[C@H]2[C@@H]3CCC4=CC(=O)C=C[C@]4(C)[C@@]3(F)[C@@H](O)C[C@]2(C)[C@@]1(O)C(=O)COP(=O)(O)O [DEX, Dexamethasone phosphate]	–	–	–	–	–	–	–	–	–	–	–	–	–	sox17 expression, control siRNA vs GR siRNA cells ([2]; Wnt3a 200 ng/ml 4 hours, DEX 100 nM 1 hour): suppressed sox17 expression to a much greater extent in control-siRNA treated cells than in GR siRNA-treated cells; axin2 expression [2, 3]: a similar pattern was observed; sox17 expression [2, 3]: suppressed expression
CCOC(=O)[C@@]1(CCCCCCOc2ccc(Cl)cc2)CO1 [etomoxir]	no significant differences	suppressed the CPT1a level	increased the expression level of β-catenin	accelerated the renal fibrogenic phenotype	exacerbated the fibrosis	upregulated	suppressed	upregulated	significant suppression	induced	significant suppression	significant suppression in FAO	significant suppression in FAO	CPT1a level in kidneys ([1]; diabetic GR^ECKO mice): suppressed the CPT1a level; level of β-catenin in kidneys ([1]; diabetic GR^ECKO mice): increased the expression level of β-catenin; renal fibrogenic phenotype ([1]; diabetic GR^ECKO mice): accelerated the renal fibrogenic phenotype
Wnt3a	–	–	–	–	–	–	–	–	–	–	–	–	–	sox17 expression, effect of Wnt3a in GR siRNA-treated cells ([2]; Wnt3a 200 ng/ml 4 hours, GR knockdown): augmented; sox17 expression, effect of Wnt3a ([2]; Wnt3a-conditioned media, MLECs): induced
